Data as given in paper PMC11312998, “Molecular Pro-Apoptotic Activities of Flavanone Derivatives in Cyclodextrin Complexes: New Implications for Anticancer Therapy” (International Journal of Molecular Sciences, 2024).

Experiments:
Hec-1-A = assay: Plasma membrane fluidity, TMA-DPH fluorescence anisotropy; format: cell-based, human; conditions: IC50 concentration, 24 h
Description: (§1) Changes in plasma membrane fluidity were determined by fluorescence spectroscopy and two fluorescent probes located at different depths of the lipid bilayer: TMA-DPH ((1-(4-Trimethylammoniumphenyl)-6-Phenyl-1,3,5-Hexatriene p-Toluene sulfonate, Sigma-Aldrich; St. Louis, MO, USA) and DAUDA (11-[5-(Dimethylamino)-1-naphthalenesulfonylamino] undecanoic acid, Sigma-Aldrich, St. Louis, MO, USA). TMA-DPH is incorporated in the superficial area of the outer monolayer, while DAUDA penetrates into the deeper hydrophobic area of the membrane. The fluorescence of the probes was measured on a Perkin-Elmer spectrofluorometer (Waltham, MA, USA) with an attachment for measuring fluorescence anisotropy with parallel and perpendicular positions of the polarizers.
(§2) Cells were seeded on sterile 35 mm dishes in numbers appropriate for a given cell line. […] After 24 h incubation, the cells were trypsinized and transferred to Eppendorf tubes (0.5 mL of suspension/sample). The cell suspension was centrifuged at 2500 rpm for 5 min at 4 °C. […] Fluorescence measurements were made on a Perkin-Elmer LS-5B spectrofluorometer (MA, USA) in an attachment with a polarizer, reading the fluorescence anisotropy at an excitation wavelength λex = 365 nm and emission wavelength λem = 425 nm (TMA-DPH), as well as excitation wavelength λex = 350 nm and emission wavelength λem = 420 nm (DAUDA).

Ishikawa = assay: as above; format: cell-based, human; conditions: IC50 concentration, 24 h
Description: as §1, §2

Structure (SMILES)	increase in cell membrane fluidity (TMA-DPH) (Hec-1-A)	increase in cell membrane fluidity (TMA-DPH) (Ishikawa)
COc1cccc(/C=C2/C(=O)c3ccccc3OC2c2ccccc2)c1 (centres unmarked) [Compound 3]	approximately 20%	
O=C1/C(=C/c2ccccc2)C(c2ccccc2)Oc2ccccc21 (centres unmarked) [Compound 5]		approximately 20%
